Measurements from patent US10105357B2, “Indication of antibiotic drugs for preparation of cancer inhibition pharmaceutical composition” (LAUNX BIOMEDICAL CO., LTD., priority 2014, dated 2018).

Legend:
[1] = system: LoVo (Colorectal Adenocarcinoma); assay: Cell viability analysis, colon cancer LoVo; assay type: cell-based, human; details: Homo sapiens, LoVo, 72 h, read-out: cell viability (survival rate), LoVo, drug 10 μM, 72 hours, WST-1, OD450 nm
[2] = system: HL-60 (Acute Promyelocytic Leukemia); assay: Cell viability analysis, leukemia HL-60; assay type: cell-based, human; details: Homo sapiens, HL-60, 72 h, read-out: cell viability (survival rate), HL-60, drug 10 μM, 72 hours, WST-1, OD450 nm
[3] = system: HeLa (Cervix Adenocarcinoma); assay: Cell viability analysis, cervical cancer HeLa; assay type: cell-based, human; details: Homo sapiens, HeLa, 72 h, read-out: cell viability (survival rate), HeLa, drug 10 μM, 72 hours, WST-1, OD450 nm
[4] = system: HCT116 (p53+) (Colorectal Carcinoma); assay: cells; details: Homo sapiens, HCT-116, 72 h, read-out: cell viability (survival rate), HCT116
[5] = system: MCF7 (Mammary Gland, Adenocarcinoma); assay: Cell viability analysis, breast cancer MCF7; assay type: cell-based, human; details: Homo sapiens, MCF7, 72 h, read-out: cell viability (survival rate), MCF7, drug 10 μM, 72 hours, WST-1, OD450 nm
[6] = system: HepG2 (Hepatocellular Carcinoma); assay: Cell viability analysis, hepatic cancer HepG2; assay type: cell-based, human; details: Homo sapiens, HepG2, 72 h, read-out: cell viability (survival rate), HepG2, drug 10 μM, 72 hours, WST-1, OD450 nm
[7] = system: A375 (Amelanotic Melanoma); assay: Cell viability analysis, skin cancer A375; assay type: cell-based, human; details: Homo sapiens, A-375, 72 h, read-out: cell viability (survival rate), A375, drug 10 μM, 72 hours, WST-1, OD450 nm
[8] = system: AGS (Gastric Adenocarcinoma); assay: Cell viability analysis, gastric cancer AGS; assay type: cell-based, human; details: Homo sapiens, 72 h, read-out: cell viability (survival rate), AGS, drug 10 μM, 72 hours, WST-1, OD450 nm
[9] = system: TSGH-8301 (Urinary Bladder Carcinoma); assay: Cell viability analysis, bladder cancer TSGH-8301; assay type: cell-based, human; details: Homo sapiens, 72 h, read-out: cell viability (survival rate), TSGH, drug 10 μM, 72 hours, WST-1, OD450 nm
[10] = system: HI650 (Lung Adenocarcinoma); assay: Cell viability analysis, lung cancer HI650; assay type: cell-based, human; details: Homo sapiens, NCI-H1650, 72 h, read-out: cell viability (survival rate), H1650, drug 10 μM, 72 hours, WST-1, OD450 nm
[11] = system: MKN-45 (Gastric Adenocarcinoma); assay: Cell viability analysis, gastric cancer MKN-45; assay type: cell-based, human; details: Homo sapiens, MKN-45, 72 h, read-out: cell viability (survival rate), MKN-45, drug 10 μM, 72 hours, WST-1, OD450 nm
[12] = system: A549 (Lung Adenocarcinoma); assay: Cell viability analysis, lung cancer A549; assay type: cell-based, human; details: Homo sapiens, A549, 72 h, read-out: cell viability (survival rate), A549, drug 10 μM, 72 hours, WST-1, OD450 nm
[13] = system: PC3 (p53−) (Prostate Adenocarcinoma); assay: Cell viability analysis, prostate cancer PC3; assay type: cell-based, human; details: Homo sapiens, 72 h, read-out: cell viability (survival rate), PC3, drug 10 μM, 72 hours, WST-1, OD450 nm
cancer cell lines = assay: Cell viability analysis (WST-1) on cancer cell lines; assay type: cell-based, human; details: drug 10 μM, 72 hours, WST-1; Table 3

## CCc1c(Cl)c(O)c(Cl)c(O)c1C(=O)O[C@H]1[C@H](O)[C@H](OC)[C@H](OC/C2=C\C=C\C[C@H](O)/C(C)=C/[C@H](CC)[C@@H](O[C@@H]3OC(C)(C)[C@@H](OC(=O)C(C)C)[C@H](O)[C@@H]3O)/C(C)=C/C(C)=C/C[C@@H]([C@@H](C)O)OC2=O)O[C@@H]1C [Fidaxomicin]
[1]
  viability at 10 µM: 89.6%
[2]
  viability at 10 µM: 99.2%
[3]
  viability at 10 µM: 82.2%
[4]
  viability at 10 µM: 102%
[5]
  viability at 10 µM: 46.6%
[6]
  viability at 10 µM: 99.6%
[7]
  viability at 10 µM: 70.3%
[8]
  viability at 10 µM: 94.9%
[9]
  viability at 10 µM: 82.4%
[10]
  viability at 10 µM: 61.2%
[11]
  viability at 10 µM: 94.2%
[12]
  viability at 10 µM: 40.6%
[13]
  viability at 10 µM: 59.4%
Cancer cell lines
  inhibition effect on different cancer cell lines: significant inhibition effect
